Values of other authors as cited in patent US20110105449A1, “DRY POWDER FORMULATIONS COMPRISING ASCORBIC ACID DERIVATES” (ASTRAZENECA R&D, priority 2007, published 2011).
In brackets after ≈: the same amount, converted by molar mass.

Conditions: at 25° C.

## CCCC1O[C@@H]2C[C@H]3[C@@H]4CCC5=CC(=O)C=C[C@]5(C)[C@H]4[C@@H](O)C[C@]3(C)[C@]2(C(=O)CO)O1 (stereo partly shown) [Budesonide, budesonide]
  water solubility: 16 µg/mL (≈ 37.2 µM)
